Values joined by “and” are separate entries in the source; they are usually repeats but may differ in a detail not shown here. Equal entries are not always repeated.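 How tested: cells in 96-well plates exposed to compound for 48 hours at five concentrations. At the GI50, growth is halved. TGI: total growth inhibition.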
Columns and labels:
Experiment in all cases: NCI-60 cell line screen, 48 h
[1] = system: TK-10 renal
[2] = system: CCRF-CEM leukemia
[3] = system: NCI-H460 lung
[4] = system: NCI-H226 lung
[5] = system: HL-60(TB) leukemia
[6] = system: MALME-3M melanoma
[7] = system: RXF 393 renal
[8] = system: SNB-75 CNS
[9] = system: DU-145 prostate
[10] = system: MDA-MB-435

SMILES | TGI [1] | TGI [2] | TGI [3] | TGI [4] | TGI [5] | TGI [6] | TGI [7] | TGI [8] | GI50 [2] | GI50 [5] | GI50 [6] | GI50 [8] | TGI [9] | TGI [10] | GI50 [1] | GI50 [9] | GI50 [3] | GI50 [4] | GI50 [10] | GI50 [7]
COc1ccc(-c2nnc(-c3c(C)n(C)n(-c4ccccc4)c3=O)o2)cc1 | > 100 µM | > 100 µM | > 100 µM | > 100 µM | > 100 µM | > 100 µM | > 100 µM | > 100 µM |  |  |  |  |  |  |  |  |  |  |  | 
C/C(=N\NC(=O)c1cccnc1)c1cccc(/C(C)=N/NC(=O)c2cccnc2)n1.CC(=O)[O-].CC(=O)[O-].[Zn+2] | > 100 µM | 65.6 µM | > 100 µM | 27.2 µM | 2.86 µM | > 79.9 µM | 36.8 µM | 98.2 µM | 0.783 µM | 0.492 µM | 19.3 µM | 24.7 µM |  |  |  |  |  |  |  | 
CN1CCN(/C(N)=C(\C#N)C(=O)Nc2ccccc2)CC1 |  | > 100 µM | > 100 µM | > 100 µM |  |  |  | > 100 µM |  |  |  |  | > 100 µM | > 100 µM |  |  |  |  |  | 
O=S(=O)(O)c1cc(Nc2ccnc3ccccc23)c2c(S(=O)(=O)O)cc(S(=O)(=O)O)cc2c1 | > 100 µM | > 100 µM | > 100 µM | > 100 µM |  | > 100 µM | > 100 µM | > 100 µM |  |  |  |  | > 100 µM | > 100 µM |  |  |  |  |  | 
CC(C)N1CCC2(CC1)NNc1ncccc1-n1cccc12 | > 100 µM | > 100 µM | > 100 µM | > 100 µM | > 100 µM | > 100 µM |  | > 100 µM |  |  |  |  |  |  |  |  |  |  |  | 
CCCCCCCCCCCCCCCCCCOc1ccc(/C=C/C2=[N+](CCCl)CCO2)cc1 | > 100 µM | > 100 µM | > 100 µM |  | > 100 µM | > 100 µM |  | > 100 µM |  |  |  |  | > 100 µM | > 100 µM |  |  |  |  |  | 
c1ccc(CCN2CCN=C2Cc2ccccc2)cc1 | > 100 µM | > 100 µM | > 100 µM | > 100 µM | > 100 µM | > 100 µM | > 100 µM | > 100 µM |  |  |  |  | > 100 µM |  |  |  |  |  |  | 
C[C@H](CN1CC(=O)NC(=O)C1)N1CC(=O)NC(=O)C1 |  | > 100 µM | > 100 µM | > 100 µM |  | > 100 µM | > 100 µM | > 100 µM |  |  |  |  |  |  |  |  |  |  |  | 
O=C(NC12CC3CC(CC(C3)C1)C2)C(=O)c1c[nH]c2ccc([N+](=O)[O-])cc12 | > 100 µM | > 100 µM | > 72.3 µM | 63.6 µM | > 100 µM | > 94.5 µM | > 94.6 µM | 52.8 µM |  |  |  |  |  |  |  |  |  |  |  | 
COc1ccc(/C=N\NC(=O)Nc2cccc3ccccc23)cc1 | 43.9 µM | > 100 µM | 40.2 µM | 83.7 µM |  | > 100 µM |  | 34.5 µM |  |  |  |  | > 100 µM | > 100 µM |  |  |  |  |  | 
CCOC(=O)C1=CC(C)(C(=O)OCC)Nc2c(nc(SC)n(C)c2=O)N1 (stereo not given) | > 10 µM | > 10 µM | > 10 µM | > 10 µM |  | > 10 µM |  | > 10 µM |  |  |  |  | > 10 µM | > 10 µM |  |  |  |  |  | 
COc1ccc(N=N/C(=N/NC(=O)c2cc(Cl)ccc2C(=O)c2ccccc2)c2ccc(N(CCC#N)CCC#N)cc2C)cc1 | 75.1 µM | 19.8 µM | 45.3 µM | 66.3 µM |  | 94.7 µM | 30.4 µM | > 100 µM |  |  |  |  | > 100 µM | > 100 µM |  |  |  |  |  | 
Nc1nn(CC(O)CO)c(=O)s1 (stereo not given) | > 100 µM | > 100 µM | > 100 µM | > 100 µM | > 100 µM | > 100 µM | > 100 µM | > 100 µM |  |  |  |  |  |  |  |  |  |  |  | 
N#CCSc1c(-c2ccccc2)c(=O)n(-c2ccccc2)c(=S)n1-c1ccccc1 | > 100 µM | > 100 µM | > 100 µM | > 100 µM | > 100 µM | > 100 µM |  | > 100 µM |  |  |  |  |  | > 100 µM |  |  |  |  |  | 
Cn1c(N=[N+]=[N-])cc(=O)n(C)c1=O | > 100 µM | > 100 µM | > 100 µM | > 100 µM |  | > 100 µM | > 100 µM |  |  |  |  |  |  | > 100 µM |  |  |  |  |  | 
Cc1c(O)c(=O)ccn1CCc1c[nH]c2ccccc12 | > 100 µM |  | 19.4 µM |  | 53.3 µM | 55.4 µM |  |  |  |  |  |  | 35.4 µM | > 100 µM |  |  |  |  |  | 
Clc1ccc2nc(CC3CCCC3)[nH]c2c1 | 70.2 µM | > 100 µM | 46.9 µM | 38.4 µM |  | 45.1 µM | 32.1 µM | 56 µM |  |  |  |  | 54.6 µM | 25.9 µM |  |  |  |  |  | 
CCOC(=O)C1C[C@H]2CO[C@H](c3ccccc3)N2C1=O (stereo not given in full) | > 100 µM | > 100 µM | > 100 µM | > 100 µM |  | > 100 µM | > 100 µM | > 100 µM |  |  |  |  | > 100 µM | > 100 µM |  |  |  |  |  | 

SMILES | TGI [1] | TGI [2] | TGI [3] | TGI [4] | TGI [5] | TGI [6] | TGI [7] | TGI [8] | GI50 [2] | GI50 [5] | GI50 [6] | GI50 [8] | TGI [9] | TGI [10] | GI50 [1] | GI50 [9] | GI50 [3] | GI50 [4] | GI50 [10] | GI50 [7]
C=CC[C@@H]1C=C[C@@H](C(=O)OC)n2c(=O)n(-c3ccccc3)c(=O)n21 | > 100 µM | > 100 µM |  | > 100 µM |  |  |  | > 100 µM |  |  |  |  | > 100 µM | > 100 µM |  |  |  |  |  | 
COc1cc2c(cc1OC(=O)c1cc3ccccc3[nH]1)N=C[C@@H]1CCCN1C2=O | 13.8 µM | 1.95 µM | 8.65 µM | 5.97 µM |  | 2.24 µM | 0.36 µM | 7.02 µM |  |  |  |  | 11.7 µM | 1.19 µM |  |  |  |  |  | 
CCCCNC(=S)c1ccc(OC(=O)Nc2ccc(Cl)cc2)cc1 |  | > 100 µM | > 100 µM |  | > 100 µM | > 100 µM |  |  |  |  |  |  | > 100 µM | > 100 µM |  |  |  |  |  | 
N#CCOc1cccc(C2(N3CC=CCC3)CCCCC2)c1 | > 100 µM | > 100 µM |  | > 100 µM | > 100 µM | > 100 µM |  |  |  |  |  |  | > 100 µM | > 100 µM |  |  |  |  |  | 
CC1(C)O[C@H]2OC(CO)C(OS(C)(=O)=O)[C@H]2O1 (stereo not given in full) | > 100 µM | > 100 µM | > 100 µM |  | > 100 µM | > 100 µM |  | > 100 µM |  |  |  |  | > 100 µM | > 100 µM |  |  |  |  |  | 
O=C1C2=C(CCCCC2)C2CCCCC12O (stereo not given) | > 100 µM | > 100 µM | > 100 µM | > 100 µM | > 100 µM | > 100 µM | > 100 µM | > 100 µM |  |  |  |  |  |  |  |  |  |  |  | 
COc1ccc2c(c1)CC1(O)COc3cc(OC)ccc3C1O2 (stereo not given) | > 100 µM | > 100 µM |  | > 100 µM |  | > 100 µM |  |  |  |  |  |  | > 100 µM | > 100 µM |  |  |  |  |  | 
Cn1cc(-c2nc(-c3c[nH]c4ccncc34)cs2)c2cc(F)ccc21 | 3.69 µM |  | 3.42 µM | 3.9 µM |  | 3.06 µM | 3.04 µM | 2.6 µM |  |  | 1.57 µM | 1.26 µM | 3.14 µM | 3.06 µM | 2.11 µM | 1.71 µM | 1.77 µM | 1.92 µM | 1.64 µM | 1.57 µM
C=C1C(=O)O[C@@H]2OC3(C)CCC4C(C)CCC1C42OO3 (stereo not given in full) |  | 2.35 µM and 5.26 µM | 8.04 µM and 5.58 µM | 27.2 µM and 24.2 µM | 3.55 µM and 2 µM |  | 9.65 µM | 25.9 µM and 7.74 µM |  | 1.18 µM | 4.13 µM | 13.1 µM |  |  |  |  |  |  |  | 3.31 µM
COc1cc2cc3c4c(cc(OC)c(OC)c4c2cc1OC)CCN3C(=O)N(C)C | > 10 µM | > 100 µM | > 100 µM | > 100 µM | > 100 µM | > 100 µM | > 100 µM | > 100 µM |  |  |  |  |  |  |  |  |  |  |  | 
COc1ccc(NCc2cnc3nc(N)nc(N)c3c2C)cc1 | > 100 µM | > 100 µM | > 100 µM | > 93.9 µM | > 100 µM | > 100 µM | > 100 µM | > 100 µM |  |  |  |  |  | > 100 µM |  |  |  |  |  | 
O=C(Cc1ccccc1)N=Nc1c(O)[nH]c2ccccc12 | > 100 µM | > 100 µM | > 100 µM | > 100 µM |  | > 100 µM | > 100 µM | > 100 µM |  |  |  |  | > 100 µM | > 100 µM |  |  |  |  |  | 
COC(=O)[C@@]12OC[C@]34C([C@@H](O)C1O)[C@@]1(C)CC(=O)C(O)=C(C)C1C[C@H]3OC(=O)[C@H](OC(=O)/C=C(/c1ccccc1)C(F)(F)F)[C@H]42 (stereo not given in full) | > 25 µM | > 25 µM | 6.71 µM | 11.7 µM | 1.41 µM | 5.71 µM | 17.5 µM | 18.6 µM |  |  |  |  |  |  |  |  |  |  |  | 
Cc1cc(C)c2c(=N)c3ccccc3n(CCCCCCn3c4ccccc4c(=N)c4c(C)cc(C)nc43)c2n1 | 3.19 µM | 0.565 µM |  | 2.85 µM |  | 2.68 µM | 2.54 µM | 1.43 µM |  |  |  |  | 3.13 µM | 3.3 µM |  |  |  |  |  | 
CCCCCCCC(=O)OCC(C[As](=O)(O)O)OC(=O)CCCCCCC (stereo not given) |  | 28 µM |  | 37.5 µM | 38.9 µM | 28.5 µM | 18.2 µM | 31.1 µM |  |  |  |  |  |  |  |  |  |  |  | 
CC(C)=CCCC1(Sc2ccccc2)C(=O)OCC1C=C(C)C (stereo not given) | > 100 µM | > 100 µM | > 100 µM | 73.7 µM |  | 40.7 µM | 45.1 µM | > 100 µM |  |  |  |  |  | > 100 µM |  |  |  |  |  | 
CCOC(=O)c1nc2cc(C(F)(F)F)ccc2nc1Nc1ccc(F)cc1 | > 100 µM | 66.2 µM | > 100 µM | > 100 µM |  | > 100 µM | > 100 µM | > 100 µM |  |  |  |  | > 100 µM | > 100 µM |  |  |  |  |  | 
CC1CC(=O)Nc2ccc(N=NN(C)C)cc2N1C=O (stereo not given) | > 100 µM | > 100 µM | > 100 µM | > 100 µM |  | > 100 µM | > 100 µM | > 100 µM |  |  |  |  | > 100 µM | > 100 µM |  |  |  |  |  | 
